The values below come from the pKa sets of Baltruschat and Czodrowski (2020).

Where a SMILES comes first, the peptide text is derived from it.

In general, pKa refers to the negative logarithm of the acid dissociation constant. Lower therefore signals a group that gives up its proton readily.

The molecule `COC(=O)[C@@H]1[C@@H](O)C[C@H]2CC[C@@H]1N2C` had a pKa (basic group) of 8.21.
As for `Oc1cccc2c1CCCC2`, the pKa (acidic group) was 10.5.
Where the note is “acidic group”, `CC(=O)[n+]1ccc(N)cc1` showed a pKa of 9.15.
Consider `Cc1nc(-c2ccccc2SCc2ccccc2)[nH]c1C`, for which the pKa (basic group) was 7.
`CC(=O)Nc1ccc(S)cc1` returned a pKa (acidic group) of 6.08.
The same measure, in the same setting: the result for `O=C(O)c1cccc(F)c1` reads 3.9.
`N#CC(C#N)=NNc1ccc(Cl)cc1` showed a pKa (acidic group) of 6.15 and a pKa (basic group) of -0.79.
As to `Cc1noc(-c2ccccc2)c1C(=O)O`, the pKa (basic group) came out at 1.7.
Turning to `C=CCN(C)CCCNC(=O)/C=N/[O-]`, the pKa (basic group) turned out to be 9.5.
In turn, `Nc1ccc2ccncc2c1` returned a pKa (basic group) of 6.2.
`NC(CC(=O)[O-])C(=O)NC(CC(=O)[O-])C(=O)[O-]` (stereo not drawn) (H-Asp-Asp-OH; configuration not given here) displayed a pKa (basic group) of 8.26.
`O=C(N[C@@H]1C[C@H]2CC[C@@H](C1)N2Cc1ccccc1)c1cccc2c1OCCO2` showed a pKa (basic group) of 8.68.
Take `CCc1c(-c2ccccc2)nn(-c2ccccc2)c1O`: the pKa (acidic group) was 8.
Regarding `c1ccc2c(c1)cnc1ccccc12`, the pKa (basic group) came out at 4.58.
The same measure, in the same setting: for `CCCCC(CC)CNc1ncnc2[nH]ncc12` (configuration not stated) the value was 4.6; for `CCN(C)N(C)C`, 6.38.
Turning to `[NH3+]c1cccc(O[C@H]2O[C@@H](C(=O)O)[C@H](O)[C@@H](O)[C@@H]2O)c1`, the pKa (acidic group) turned out to be 2.97.
`OC(c1ccncc1)(c1ccncc1)c1ccncc1` came in with a pKa (acidic group) of 11.8.
Same read-out and setting: for `CC(C)C(Br)C(=O)O` (configuration not stated) the value was 2.82.
As to `N[C@@H](Cc1nc[nH]c1I)C(=O)[O-]`, the pKa stood at 12.4 (acidic group) and 8.62 (basic group).
On to `CN1C[C@H](C(=O)[O-])C[C@@H]2c3cccc4[nH]cc(c34)C[C@@H]21`, for which, for the setting “basic group”, the pKa was determined as 8.57.
In turn, `Oc1nc2nc[nH]c2c(O)[nH+]1` gave a pKa (acidic group) of 1.2.
Still for that read-out and setting: the result for `C=C=CC(=O)O` reads 3.96.
For `Cc1ccc2nc3ccc(N)cc3nc2c1`, the pKa (basic group) was 4.8.
The molecule `Oc1[nH+]ccc2cccnc12` gave a pKa (acidic group) of 2.64.
`CN(C)CCC(C#N)(c1ccccc1)c1ccccc1` had a pKa (basic group) of 8.31.
With `O=C(c1ccccc1)c1cccc([N+](=O)[O-])c1C(=O)O`, the pKa (acidic group) was found to be 2.39.
In the case of `Cc1cccnc1C`, where the note is “basic group”, the pKa was 6.57.
On to `c1c[nH]cn1`, for which the pKa worked out at 14.5 (acidic group) and 7.07 (basic group).
Molecule `CCCCC#CC(=O)O` gave a pKa (acidic group) of 2.61.
The same measure, in the same setting: the result for `O=C(NO)c1ccc([N+](=O)[O-])cc1` reads 8.02; that for `N#CC(C#N)=C(C#N)Nc1ccc(Br)cc1`, 4.45.
Where the note is “acidic group”, `CC(C)(O)C(C(=O)O)c1ccc(-c2ccccc2)cc1` (configuration not stated) displayed a pKa of 3.76.
Turning to `O=C1[C@H]2C[C@H](CN3CCCC=C23)[C@@H]2CCCCN12`, the pKa (basic group) stood at 9.7.
On to `Cc1ccc(S)cc1`, for which the pKa (acidic group) is 6.47.
Regarding `Cc1cc(CO)c(O)c(CO)c1`, where the note is “acidic group”, the pKa came to 9.92.
Where the note is “basic group”, `Cc1ccccc1/C(=N\CCC[NH+](C)C)c1ccccc1-c1ccccc1` came in with a pKa of 4.67.
`NCC[n+]1ccc2c([N+](=O)[O-])cccc2c1` yielded a pKa (basic group) of 6.65.
`Cc1cc(O)c(=O)ccc1Br` came in with a pKa (acidic group) of 6.6.
`Cc1nn(-c2ccccc2)c(C(=O)[O-])c1C(=O)[O-]`: the pKa (basic group) turned out to be 5.89.
The molecule `CN=C1CCCCC1` came in with a pKa (basic group) of 9.43.
Same read-out and setting: the result for `CCCCCCCCCCCCCCCNCCCCCCCCCCCCCCC` reads 11.
Same read-out and setting: the result for `Nc1ccccc1-c1nc2ccccc2s1` reads 2.6.
`CCOC(=O)c1ccc(O)cc1` displayed a pKa (acidic group) of 9.34.
`COc1cc(N)c(C#N)c(N)n1`: the pKa (basic group) worked out at 4.17.
In turn, `Cc1c(O)n[nH]c1-c1ccccc1` registered a pKa (acidic group) of 7.6.
Turning to `CCC(O)CN(C)CC(C)O` (configuration not stated), the pKa (basic group) turned out to be 8.9.
For `COc1cc(C(C)=O)ccc1O`, the pKa (acidic group) was found to be 7.65.
As for `Cc1cc([N+](=O)[O-])ccc1NN=C(C#N)C#N`, the pKa is 5.5 (acidic group) and -0.74 (basic group).
`c1ccc2nccnc2c1` displayed a pKa (basic group) of 0.64.
Regarding `CN(C)Cc1cc(C(=O)c2ccccc2)ccc1[O-]`, the pKa (basic group) was determined as 10.2.
The same measure, in the same setting: the result for `COc1ccc(CN)cc1` reads 9.67; that for `CC(O)c1ccccc1` (configuration not stated), -7; that for `Cc1c(Cn2ccnc2)n(C)c2ccc(C(=O)[O-])cc12`, 6.32.
Regarding `COCC(=O)O`, the pKa (acidic group) amounted to 3.53.
In the case of `Nc1nc2c(o1)CCCC2`, the pKa (basic group) turned out to be 5.75.
Molecule `O=C(O)c1cccc([N+](=O)[O-])c1Cl` showed a pKa (acidic group) of 2.02.
As to `C/C(=C/Cl)C(=O)O`, for the setting “acidic group”, the pKa was 3.05.
In turn, `Cc1cc(O)cc(C)c1[N+](=O)[O-]` had a pKa (acidic group) of 8.25.
Where the note is “basic group”, `CCn1cc(C#N)c(=O)c2ccccc21` returned a pKa of -1.55.
As to `O=C(Cc1cnccn1)c1ccccc1`, for the setting “basic group”, the pKa worked out at 0.33.
For the setting “basic group”, `Nc1nccs1` returned a pKa of 5.44.
As to `CCN(CC)CCOC(=O)c1ccccc1`, the pKa (basic group) is 8.9.
Turning to `Oc1ccc(O)c(Cl)c1`, the pKa (acidic group) was determined as 8.81.
For the molecule `c1ccc(CCNc2ncnc3nc[nH]c23)cc1`, the pKa by setting is: (acidic group) 10.1; (basic group) 4.2.
Regarding `Nc1nc(N)c2[nH]c(N)nc2n1`, the pKa is, setting by setting: (acidic group) 10.8; (basic group) 6.23.
For `COc1cc(S(C)=O)ccc1-c1nc2[nH]ncc2[nH]1` (configuration not stated), in that order: 12 and 3.8.
In turn, `Cc1c[nH]c(C(=O)O)c1` yielded a pKa (acidic group) of 4.6.
For the setting “basic group”, `CCCCCCN(CCO)CC(O)CC` (configuration not stated) yielded a pKa of 9.1.
`O=C(O)[C@H](P)CC[C@H](P)C(=O)O` showed a pKa (acidic group) of 3.54.
The same measure, in the same setting: the result for `O=[N+]([O-])c1cccc(O)c1O` reads 6.64.
`CC(C)c1ccccn1`: the pKa (basic group) stood at 5.83.
`CN(C)CCCCCCCCCCNC(=O)/C=N/[O-]` came in with a pKa (basic group) of 10.6.
Consider `NS(=O)(=O)c1ccsc1C(=O)O`, for which, under “acidic group”, the pKa came to 3.3.
Still for that read-out and setting: for `Cc1ccc2ccccc2c1C(=O)O` the value was 3.11.
Molecule `Clc1ccc(/C=C/c2nnnn2-c2ccccc2)cc1` returned a pKa (basic group) of -2.54.
For the molecule `Nc1nc2nc[nH]c2c([O-])[nH+]1`, the pKa (acidic group) came out at 9.39.
For the molecule `OCCN1CCOCC1`, the pKa (basic group) was found to be 7.18.
In the case of `O=c1c2[nH]cnc2ncn1O`, the pKa (acidic group) came out at 5.66.
As for `CCCOc1ccc(O)cc1`, for the setting “acidic group”, the pKa turned out to be 10.2.
`Nc1cnccn1` had a pKa (basic group) of 3.14.
The same measure, in the same setting: the result for `c1coc(-c2ccncc2)c1` reads 5.6; that for `CCSC(=O)c1ccc(Cl)cc1`, -5.02; that for `Fc1cccnc1`, 2.97.
As for `CNC`, the pKa (basic group) worked out at 11.
Under “acidic group”, `C=C/C(C)=C/[C@@H](C)C(=O)C[C@@H](O)CC1CC(=O)NC(=O)C1` came in with a pKa of 11.2.
`COc1ccc([Se]O)c([N+](=O)[O-])c1` displayed a pKa (acidic group) of 10.7.
Where the note is “basic group”, `CCNN(C)CC` yielded a pKa of 6.81.
`CCCCC1(CC)C(=O)NC(=S)NC1=O` gave a pKa (acidic group) of 7.37.
In the case of `Oc1ccc(C2NCCS2)cc1` (configuration not stated), for the setting “basic group”, the pKa came to 5.5.
`CCOC(=O)C1(c2ccccc2)CCN(C)CC1`: under “basic group”, the pKa amounted to 8.6.
For `Nc1cccc(-c2ccccn2)n1`, the pKa (basic group) amounted to 5.8.
Regarding `O=[N+]([O-])c1cccc(O)c1[O-]`, the pKa (acidic group) was 11.5.
In the case of `NC1=[NH+][C@H]2C[C@@H](N1)N[C@@H]2C(=O)[O-]`, the pKa (basic group) was 5.5.
On to `Cc1ccc2ccc3ccc(C)nc3c2n1`, for which, under “basic group”, the pKa was determined as 6.15.
For the molecule `COc1ccccc1/C=C\C(=O)O`, the pKa (acidic group) turned out to be 4.27.
Same read-out and setting: for `CC1=CC(=Nc2ccc(O)cc2)C=C(C)C1=O` the value was 8.9.
Still for that read-out and setting: the result for `CCCC1(Br)C(=O)NC(=O)NC1=O` reads 6.6.
`Cc1cc([O-])ncn1`: the pKa (basic group) came to 9.
On to `O=C(O)[C@H]1C[C@@H]1Cl`, for which the pKa (acidic group) was 4.12.
For `Cc1ccc2c(c1)C(CC[NH3+])CN2` (configuration not stated), for the setting “basic group”, the pKa was 4.1.
In the case of `COC(=O)C1=C(C(=O)OC)CC=C1`, under “acidic group”, the pKa is 5.
For `CCC1(CC)OC(=O)NC1=O`, where the note is “acidic group”, the pKa was determined as 5.7.
For the molecule `Cc1ccc([C@@H](OCCN(C)C)c2ccccc2)cc1`, the pKa (basic group) worked out at 8.5.
As for `C[Si](C)(C)CN`, where the note is “basic group”, the pKa was found to be 10.9.
The molecule `O=C([O-])CCCC(=O)NOCc1ccccc1` registered a pKa (acidic group) of 10.2.
Consider `c1ccc2c(c1)CNCCCNCc1ccccc1OCCCO2`, for which the pKa (basic group) is 10.
Where the note is “acidic group”, `CC(=O)c1ccc(Cl)cc1` displayed a pKa of 18.1.
`C=CCC(C)(CN(CC)CC)OC(=O)CC(C)C` (configuration not stated) came in with a pKa (basic group) of 8.1.
Regarding `O=C(O)[C@H]1C[C@H]2CC[C@@H]1C2`, for the setting “acidic group”, the pKa is 5.08.
Take `CCCn1ccnc1C`: the pKa (basic group) worked out at 8.2.
In turn, `CC(C)CCC[NH+](C)CCCNC(=O)/C=N/O` displayed a pKa (acidic group) of 8.72.
Take `CC(C)N/C=[NH+]/c1ccc(-c2c[nH]cn2)cc1`: under “basic group”, the pKa turned out to be 5.58.
The molecule `O=[PH]([O-])C([NH2+]Cc1ccncc1)c1ccccc1O` (configuration not stated) yielded a pKa (basic group) of 3.25.
`Cc1ccccc1/C(=N\CCCN(C)C)c1cccc2ccccc12` came in with a pKa (basic group) of 8.8.
Turning to `CC(C)c1cccc(=O)c(O)c1`, the pKa (acidic group) worked out at 7.22.
On to `C[NH+]1CCC(NN)CC1`, for which the pKa (basic group) was 5.7.
Still for that read-out and setting: for `CCNc1ccc(C)cc1` the value was 5.72.
For the setting “acidic group”, `CCCCCCCCCC(=O)O` returned a pKa of 4.89.
For the setting “acidic group”, `O=C(/C(=N\O)c1ccccc1)c1ccccc1` showed a pKa of 10.
Take `COc1ccc(OC)c(N)c1`: for the setting “basic group”, the pKa is 3.72.
In turn, `N#CCCC(=O)O` displayed a pKa (acidic group) of 3.98.
`[NH3+]/N=C/c1ncnc2nc[nH]c12`: the pKa (basic group) was 2.8.
Molecule `CC(=O)N1CCNCC1` yielded a pKa (basic group) of 7.94.
Under “basic group”, `CNC(=N)N` displayed a pKa of 13.4.
On to `Nc1ccc2c(N)c3ccccc3nc2c1`, for which the pKa (basic group) came to 11.5.
`C/N=c1/oc2c(n1C)CCCC2` showed a pKa (basic group) of 10.2.
Same read-out and setting: for `COc1cccc(NCCS)c1` the value was 5.18.
`N=C(N)Nc1nc(N)nc(NC(N)=[NH2+])n1` displayed a pKa (basic group) of 7.
On to `CCc1cc(-c2ccccc2)nnc1NCC[NH+]1CCOCC1`, for which the pKa (basic group) amounted to 4.37.
Molecule `CN1CCOCC1` had a pKa (basic group) of 7.66.
Where the note is “acidic group”, `OC(O)c1ccccc1` yielded a pKa of 12.4.
For the setting “acidic group”, `Cc1ccc(C(=S)Nc2cccc(F)c2)cc1` showed a pKa of 10.6.
As to `CCCCN(C)C`, the pKa (basic group) was found to be 10.
For the setting “basic group”, `C[NH+](C)C[C@H]1[C@@H]2CC[C@@](C)([C@H]1N)C2(C)C` displayed a pKa of 6.59.
